# Test results reported in patent US20260138981A1, “DIHYDROFOLATE REDUCTASE INHIBITORS FOR ANTI-BIOTIC RESISTANT INFECTIONS” (THE TRUSTEES OF PRINCETON UNIVERSITY, priority 2022, published 2026).
# Legend:
# [1] = tested on: folate metabolism in P. aeruginosa; assay: Metabolomics (LC-MS metabolite abundance); type: cell-based; conditions: PA14, 2×MIC for 15 min, vs solvent control; P=0.0186 and 0.0196
# Protocol: Metabolite abundance was quantified in comparison to the solvent only control. Data represents mean±SD for 3 biological replicates. P values were calculated using unpaired t-test using Prism 9 (P values≤0.05)
# To test the ability of fluorofolin to inhibit P. aeruginosa DHFR in vivo, metabolomics were performed. As a positive control for DHFR inhibition, we turned to TMP.
# Overnight P. aeruginosa PA14 cultures were diluted 1:150 in Gutnick Minimal Media and grown to early-mid exponential phase (OD600=0.4-0.6).
# LC-MS analysis of metabolites was performed on Orbitrap Exploris 240 mass spectrometer coupled with hydrophilic interaction liquid chromatography (HILIC)^64. […] Flow rate was 0.15 mL/min, and column temperature was set at 25° C. […] The orbitrap resolution was 180,000 at m/z of 200. The maximum injection time was 200 ms, and the automatic gain control (AGC) target was 1000%. Raw mass spectrometry data were converted to mzXML format by MSConvert (ProteoWizard). Pick-peaking was done on El Maven (v0.8.0, Elucidata).
# [2] = Maximum tolerated dose (MTD); type: in vivo, mouse; conditions: administered subcutaneously (SC), CD-1 mice
# Protocol: P. aeruginosa thigh infection model and MTD studies: Care and handling of Female 5-6-week-old CD-1 conformed to institutional animal care and use policies as carried out at University of North Texas Health Science Center (Fort Worth, Texas). Rodents were fed either base chow or base diet supplemented with 1.8 g/kg thymidine (Sigma T9250) obtained from Envigo starting two days before infection.
# MTD was determined through administration of compounds at increasing dosage until the maximum dose before adverse reactions were observed. Doses were increased in a stepwise manner from 1 mg/kg to 5, 10, 25, 50 mg/kg. […] MTD was evaluated by the University of North Texas Health Science Center (Fort Worth, Texas).
# [3] = tested on: S. epidermidis, E. cloacae, E. faecalis, K. pneumoniae, and S. aureus; assay: Growth of other species with TMI supplementation; type: cell-based; conditions: fluorofolin 2×MIC, 0.3 mM TMI
# Protocol: Where listed, growth media were prepared according manufacturer recommendations: LB Broth and LB Broth supplemented with 0.3 mM thymine (BD Biosciences 244610, Alfa Aesar A15879), 0.3 mM methionine (Sigma-Aldrich M9625), 0.3 mM inosine (EMD Millipore 4060), Mueller Hinton II Broth (Cation-Adjusted)/(CAMHB) (BD 212322) or 0.3 mM thymidine (Sigma-Aldrich T1895), Gutnick Minimal Media (1.0 g/L K2SO4, 13.5 g/L K2HPO4, 4.7 g/L KH2PO4, 0.1 g/L of MgSO4-7H2O, 10 mM NH4Cl as a nitrogen source, and 0.4% w/v glucose as a carbon source)^62.
smiles,measurement,setting,value
Nc1nc(N)c2c(ccc3c2ccn3Cc2ccnc(F)c2)n1 [fluorofolin],abundance of AICAR and dUMP,[1],significant upregulation
same,maximum tolerated dose,[2],25 mg/kg
same,rescue of growth inhibition by TMI supplementation,[3],could also be rescued from fluorofolin growth inhibition
